# Earlier results as cited in US20060188878A1, “Methods to predict ederma as a side effect of drug treatment” (priority 2002, published 2006).
# Tested on: CML
# [1] = of 54 CML patients treated with 300 mg or more
compound,measurement,setting,value
Cc1ccc(NC(=O)c2ccc(CN3CCN(C)CC3)cc2)cc1Nc1nccc(-c2cccnc2)n1 [Imatinib],Patients with complete cytogenetic remission,[1],7
same,Patients with complete hematologic responses,[1],53
same,Patients with cytogenic responses,[1],29
same,Patients with major cytogenetic responses (0-35% of cells in metaphase positive for the Ph′ chromosome),[1],17
same,"Patients with major cytogenetic responses, percent",of the 54 patients who received the dose (300 mg or more),31%
